According to US20240382596A1, “COMPOSITION OF VANCOMYCIN AQUEOUS SOLUTION” (HAINAN POLY PHARM. CO., LTD., priority 2021, published 2024):

What was measured:
[1] = Stability of vancomycin eye drops, HPLC relevant substances; format: physicochemical; conditions: eye drops study, 0 day
Description: (§1) The embodiments are intended to facilitate understanding of the invention and should not be deemed as a limitation to the invention. • HPLC analysis conditions of the following embodiments were: • Chromatographic column: Welch Ultimate XB-C18 (250×4.6 mm, 5 μm) • Detection wavelength: 280 nm; • Column temperature: 30° C.; • Flow rate: 2.0 mL/min; • Injection volume: 20 μL; • Mobile phase: • Solution A: 4.0 mL of triethylamine was precisely measured, and water was added to bring the total volume to 2000 mL, and the pH of the solution was further adjusted to 3.20 with phosphoric acid; • Solution B: Acetonitrile-tetrahydrofuran-solution A=55−10−935, the pH was adjusted to 3.20 with phosphoric acid; • Solution C: acetonitrile-tetrahydrofuran-solution A=290−10−700, the pH was adjusted to 3.20 by phosphoric acid; • Elution gradient: […]
After being placed under accelerated conditions of 25° C./60% RH for 30 days, relevant substances were sampled and detected. The result is shown in Table 7, the percentage of impurities peak area is calculated by peak area normalization method.

[2] = Stability of vancomycin injection, HPLC relevant substances; format: physicochemical; conditions: injection study, 0 day
Description: as §1
After being placed under accelerated conditions of 25° C./60% RH for 30 days, relevant substances were sampled and detected.

[3] = PK test of vancomycin injection; format: in vivo; conditions: SD rats following a single intrathecal dose; range over G1-G3
Description: Nine male SD rats were divided into three groups. […] Plasma samples were collected at 0.083, 0.167, 0.25, 0.5, 1, 2, 4, 6, 8, 12, and 24 h post-dosing in each group. The concentration of vancomycin in plasma samples was detected using an established LC-MS/MS method.

In the case of Vancomycin hydrochloride, the CDP-1 [1] is reported as 0.32%, the RS2 [1] is reported as 0.53% and the “Vancomycin HCl” value [1] is reported as 95.81%. For the same substance, the CDP-1 [2] was 0.32%, the RS2 [2] was 0.55% and the “Vancomycin HCl” value [2] was 95.19%. The “elimination half-life (T½)” value [3] was 40.7 to 50.5 min.
